# Read-outs that look alike come from different tables or passages of the source.
# What was measured:
# [1] = system: OPCs (oligodendrocyte precursor cells); assay: OPC differentiation assay; type: cell-based, Sprague Dawley rats; conditions: 2 μM and 20 μM, 3-day incubation
# Experimental: Enriched populations of oligodendrocytes were grown from post-natal day 2 (P2) female Sprague Dawley rats. The forebrain was dissected out and placed in Hank's buffered saline solution (HBSS; Invitrogen, Grand Island, N.Y.). The tissue was cut into 1 mm fragments and incubated at 37° C. for 15 minutes in 0.01% trypsin and 10 μg/mL DNase. Dissociated cells were plated on poly-L-lysine-coated T75 tissue culture flasks and grown at 37° C. for 10 days in Dulbecco's modified Eagle's medium (DMEM) with 20% fetal calf serum (Invitrogen). A2B5+OPCs were collected by shaking the flask overnight at 200 rpm and 37° C., resulting in a 95% pure population.
# For the differentiation assay, 2 μM and 20 μM antagonist or the same concentrations of vehicle (DMSO) were applied to OPCs cultured in CNTF/T3 containing media. After a 3-day incubation, […], cell were lysed and then subjected to MSD (Meso Scale Discovery-R) analysis. EC50 was calculated by Prism using a nonlinear sigmoidal dose-response curvecells. […] After centrifugation at 14,000 g for 15 minutes, the supernatants were boiled in Laemmli sample buffer, subjected to 4-20% SDS-PAGE, and analyzed by Western blotting with anti-MBP, anti-myelin-associated glycoprotein (MAG), or anti-beta actin antibodies. […]
# S1P1 = S1P1 (Homo sapiens, UniProt P21453); assay: S1P receptor activity assay (calcium flux, FLIPR TETRA), S1P1; type: cell-based
# Excerpt: (§1) Agonist percentage activation determinations were obtained by assaying sample compounds and referencing the Emax control for each receptor profiled. Antagonist percentage inhibition determinations were obtained by assaying sample compounds and referencing the control EC80 wells for each receptor profiled. The samples were run using a “Single Addition” assay protocol for the agonist and antagonist assay run. The protocol design was as follows:
# (§2) Master stock solution: Unless specified otherwise, all sample compounds were diluted in 100% anhydrous DMSO including all serial dilutions. All control wells contained identical solvent final concentrations as did the sample compound wells.
# (§3) Compound plate for assay: The sample compounds were transferred from a master stock solution into a daughter plate that was used in the assay. Each sample compound was diluted into assay buffer (1×HBSS with 20 mM HEPES and 2.5 mM Probenecid) at an appropriate concentration to obtain final concentrations.
# (§4) Sample compounds were plated in an eight-point, four-fold dilution series in duplicate with a top concentration of 10 μM. The concentrations described here reflect the final concentration of the compounds during the antagonist assay.
# (§5) Reference agonists were handled as mentioned above serving as assay control. The reference agonists were handled as described above for Emax.
# (§6) Assay was read for 180 seconds using the […] (This assay run added sample compounds and reference agonist to respective wells). At the completion of the first “Single Addition” assay run, assay plate was removed from the […] and placed at 25° C. for seven (7) minutes.
# (§7) Using the EC80 values determined during the agonist assay, stimulated all pre-incubated sample compound and reference antagonist (if applicable) wells with EC80 of reference agonist. Read for 180 seconds using the […] (This assay added reference agonist to respective wells—then fluorescence measurements were collected to calculate percentage inhibition values).
# (§8) All plates were subjected to appropriate baseline corrections. Once baseline corrections were processed, maximum fluorescence values were exported and data manipulated to calculate percentage activation, percentage inhibition and Z′.
# S1P5 = S1P5 (Homo sapiens, UniProt Q9H228); assay: S1P receptor activity assay (calcium flux, FLIPR TETRA), S1P5; type: cell-based
# Excerpt: as §1, §2, §3, §4, §5, §6, §7, §8
# S1P4 = biological target: T1, S1P4 (Homo sapiens, UniProt O95977); assay: S1P receptor activity assay (calcium flux, FLIPR TETRA), S1P4; type: cell-based
# T1 sequence (O95977 1-384): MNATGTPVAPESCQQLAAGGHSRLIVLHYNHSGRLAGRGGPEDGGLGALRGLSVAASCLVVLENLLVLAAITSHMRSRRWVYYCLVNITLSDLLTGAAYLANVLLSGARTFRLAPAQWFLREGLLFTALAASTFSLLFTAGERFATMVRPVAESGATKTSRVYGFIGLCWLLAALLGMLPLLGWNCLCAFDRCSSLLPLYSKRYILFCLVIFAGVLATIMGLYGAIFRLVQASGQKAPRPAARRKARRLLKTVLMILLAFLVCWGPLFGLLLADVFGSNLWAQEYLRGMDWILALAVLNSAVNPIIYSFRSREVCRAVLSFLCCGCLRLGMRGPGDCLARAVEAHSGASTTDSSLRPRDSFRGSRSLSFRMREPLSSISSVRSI
# Excerpt: as §1, §2, §3, §4, §5, §6, §7, §8
# Human ATX protein = biological target: T2, Human ATX protein (Homo sapiens, UniProt Q13822); assay: Autotaxin (ATX) FRET assay with FS-3 substrate; type: biochemical
# T2 construct: made in house
# Excerpt: ATX (Autotaxin) is a 125 KDa glycoprotein with lysophospholipase D (LPLD) activity that generates the bioactive lipid lysophosphatidic acid (LPA) from lysophosphatidylcholine (LPC). The ATX biochemical assay utilizes a FRET (fluorescence resonance energy transfer) technology platform. […] ATX catalyzes the hydrolysis of the substrate which separates the dabsyl quencher from the fluorescein reporter, which becomes fluorescent. The reaction is monitored by a SpectraMax M5 (Molecular Devices, Sunnyvale, Calif.) with at excitation wavelength 485 nm and emission wavelength 535 nm.
# Fatty acid free-BSA (Sigma A8806): 10 mg/mL in H2O, stored at 4° C.
# 2×ATX assay buffer: 100 mM Tris, 280 mM NaCl, 10 mM KCl, 2 mM CaCl2, 2 mM MgCl2, pH 7.4.
# Human ATX protein: expressed and purified in house. Stored at −80° C.
# Substrate FS-3 (Echelon, L-2000): 100 μg in 77.74 μL H2O (1 mM stock), stored at −20° C.
# Compound dilution—All compounds were provided at 10 mM in 100% DMSO. In the first well, 2 μL of 10 mM compound was added to 78 μL of DMSO (1:40 dilution). In subsequent wells 3-fold dilution (total 10 dilutions) were performed.
# 1×ATX assay buffer was made up with a final concentration of 1 mg/mL fatty acid free-BSA using 2×ATX assay buffer, 10 mg/ml fatty acid free-BSA and ddH2O.
# 38 μL was added per well to the assay plate. The final concentration of ATX in the reaction as 1.0 μg/mL.
# 2 μL per well of compounds was transferred to provide the desired concentration. The plate was centrifuged, then incubated at room temperature for 30 minutes on the shaker.
# FS-3 was diluted with 1×ATX assay buffer to a concentration of FS-3 of 10 μM (5×). Then, 10 μL was added per well to the assay plate. The final concentration of FS-3 in the reaction was 2 μM. The plate was centrifuged. The plate was kept shaking at room temperature for 2 hours. Because FS-3 substrate is light sensitive, plates were kept covered and protected from light.
# [2] = calcium flux, top concentration 10 μM, read-out: IC50 for S1P5
# [3] = FS-3 2 μM, ATX 1.0 μg/mL, 2 hours at room temperature, read-out: IC50 (ATX)
# [4] = calcium flux, top concentration 10 μM, the >5 μM sentence says only 'for S1P1', read-out: IC50 for S1P1 agonist activity
# [5] = calcium flux, top concentration 10 μM, the >5 μM sentence says only 'for S1P4', read-out: IC50 for S1P4 agonist activity
# S1P1, sequence (P21453 whole entry): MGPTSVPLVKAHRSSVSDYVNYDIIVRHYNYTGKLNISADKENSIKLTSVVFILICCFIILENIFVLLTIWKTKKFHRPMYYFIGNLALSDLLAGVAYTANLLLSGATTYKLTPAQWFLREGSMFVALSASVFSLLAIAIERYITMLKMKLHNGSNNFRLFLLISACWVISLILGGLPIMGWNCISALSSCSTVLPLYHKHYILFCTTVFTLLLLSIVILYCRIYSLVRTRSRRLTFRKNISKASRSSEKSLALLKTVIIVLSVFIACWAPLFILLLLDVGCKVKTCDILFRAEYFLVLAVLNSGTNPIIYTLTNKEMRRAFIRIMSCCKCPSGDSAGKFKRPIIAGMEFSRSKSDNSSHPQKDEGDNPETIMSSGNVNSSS
# S1P5, sequence (Q9H228 whole entry): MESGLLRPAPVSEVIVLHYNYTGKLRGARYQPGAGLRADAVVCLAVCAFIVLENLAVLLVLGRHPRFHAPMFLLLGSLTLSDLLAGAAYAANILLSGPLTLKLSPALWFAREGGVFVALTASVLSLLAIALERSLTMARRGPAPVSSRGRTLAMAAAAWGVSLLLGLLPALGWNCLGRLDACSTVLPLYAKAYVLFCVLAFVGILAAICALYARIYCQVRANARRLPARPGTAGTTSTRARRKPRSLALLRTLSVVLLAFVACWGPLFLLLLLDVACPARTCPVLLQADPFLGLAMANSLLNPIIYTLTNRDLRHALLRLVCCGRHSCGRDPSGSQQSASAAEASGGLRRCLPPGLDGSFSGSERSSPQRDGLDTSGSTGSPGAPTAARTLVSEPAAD
IC50 (S1P1; [4]) [µM],IC50 (S1P4; [5]) [µM],Compound,result in the OPC assay [1],IC50 (S1P1) [µM],IC50 (S1P5) [µM],IC50 (S1P4) [µM],IC50 (Human ATX protein) [µM],IC50 (S1P5; [2]) [µM],IC50 (Human ATX protein; [3]) [µM]
–,–,"CCCCCCCCOc1ccc(N2CCN(CCC(=O)O)CC2)cc1 [Example 14, 3-(4-(4-(Octyloxy)phenyl)piperazin-1-yl)propanoic acid]",positive,> 5,> 5,≤ 2,> 10,–,–
–,–,"CCCCCCCCOc1ccc(N2CCN(CC34CCC(C(=O)O)(CC3)CC4)CC2)cc1 [Example 16, 4-((4-(4-(Octyloxy)phenyl)piperazin-1-yl)methyl)bicyclo[2.2.2]octane-1-carboxylic acid]",positive,> 5,> 5,≤ 5,≤ 5,–,–
–,–,"CC[C@H]1CC[C@H](Oc2ccc(C3=CCN(CCCCC(=O)O)CC3)cc2)CC1 [Example 31, 5-(4-(4-((trans-4-Ethylcyclohexyl)oxy)phenyl)-5,6-dihydropyridin-1(2H)-yl)pentanoic acid]",–,> 5,–,≤ 2,–,> 5,> 10
–,–,"CC(C)(C)[C@H]1CC[C@H](Oc2ccc(C3=CCN(CCCC(=O)O)CC3)cc2)CC1 [Example 47, 4-(4-(4-((trans-4-(tert-Butyl)cyclohexyl)oxy)phenyl)-5,6-dihydropyridin-1(2H)-yl)butanoic acid]",–,≤ 2,–,≤ 2,–,≤ 2,≤ 5
> 5,> 5,"CC[C@H]1CC[C@@H](Oc2ccc(C3CCN(CCC(=O)O)CC3)cc2)CC1 [Example 34, 3-(4-(4-((cis-4-Ethylcyclohexyl)oxy)phenyl)piperidin-1-yl)propanoic acid]",–,–,–,–,–,> 5,> 10
> 5,≤ 2,"CCCCCCCCOc1cnc(N2CCN(CCC(=O)O)CC2)nc1 [Example 21, 3-(4-(5-(Octyloxy)pyrimidin-2-yl)piperazin-1-yl)propanoic acid]",–,–,–,–,–,> 5,5 to 10
> 5,> 5,"CCCCCCCCOc1ccc(C2CCCC(N3CCC(C(=O)O)CC3)C2)cc1 (stereo not shown) [Example 9, 1-(3-(4-(octyloxy)phenyl)cyclohexyl)piperidine-4-carboxylic acid]",–,–,–,–,–,> 5,> 10
–,–,"O=C(O)CCCCN1CC=C(c2ccc(OC3CCC4(CCCC4)CC3)cc2)CC1 [Example 43, 5-(4-(4-(Spiro[4.5]decan-8-yloxy)phenyl)-5,6-dihydropyridin-1(2H)-yl)pentanoic acid]",–,> 5,–,2 to 5,–,> 5,> 10

# Reference: patent US9850206B2, “S1P and/or ATX modulating agents” (BIOGEN MA INC., priority 2012, dated 2017)
